Data set [1] in a line: Bioavailability of BJ486K in mice, plasma levels by LC-MS/MS. It counts as in vivo. How it is done: FIG. 10: Oral bioavailability of BJ486K in mice. A single dose of 0.25 mg/kg of BJ486K was administered through oral (A) or intravenous route (B). Plasma levels of BJ486K were determined 5, 15, 30, 60, 120 and 180 minutes post administration. Mean values of two animals including the standard errors are given. (C)
Bioavailability of BJ486K. Mice (24 in total) were treated either orally or intraveniously with a single dose of 0.25 mg/kg of the inhibitor (solved in saline/10% cremophor EL). At different time points after inhibitor administration (5 min, 15 min, 30 min, 60 min, 120 min or 180 min) two mice from each group were sacrified and the blood was centrifuged to obtain the plasma, which was stored at −80° C. until further examination. 400 μl of each plasma sample was mixed with equal amount of a 2% trifluoroacetic acid and loaded on a SPE Strata C18 column (equilibrated with 1 ml methanol and 1 ml 1% trifluoroacetic acid) for solid phase extraction of the plasma. After several washing steps (1% trifluoroacetic acid and water), the samples were eluted with acetonitrile and dried. […] Samples were further analyzed with a LC-MS/MS (triple quadrupole mass spectrometer LCMS 8030 Shimadzu), which was calibrated at the day of measurement. […] Bioavailability was calculated by dividing the area under curve (AUC) for oral route by the AUC for intravenous route.

Data set [2] deals with Luc-Jc1/E2/G451R reporter viruses. As to the kind of experiment: Resistance test, Luc-Jc1 versus Luc-Jc1/E2/G451R reporter virus. Conditions: Huh7-Lunet/CD81 cells, luciferase 72 h. It counts as cell-based, HCV. The protocol:
FIG. 4: BJ486K is not affected by viral resistance towards a SR-BI-targeting compound, inhibits HCV of different genotypes and prevents infection of primary human hepatocytes Huh7-Lunet/CD81 cells were inoculated with Luc-Jc1 or Luc-Jc1/E2/G451R reporter viruses in the presence of increasing doses of (A) ITX 5061 or (B) BJ486K. Cells were lysed 72 h later. Luciferase activity was determined and is expressed relative to control infections conducted in the presence of DMSO. Mean values of four independent experiments each with quadruplicate measurements including the standard deviation are shown. (C) Huh7-Lunet/CD81 cells were inoculated with genotype 1a, 1b, 2b, 3a, 4a, 5a and 6a chimeric reporter viruses in the presence of increasing doses of BJ486K. Luciferase activity was determined 72 h later and is expressed relative to infections in the presence of DMSO. Mean values of three independent experiments, each with triplicate measurements, are given. (D) Primary human hepatocytes were inoculated with Con1/C3 in the presence of DMSO or increasing concentrations of BJ486K. The inhibition of HCV infection was assessed by focus-formation assay and is expressed as % inhibition relative to DMSO-treated cells. Mean values of duplicate measurements including the error range are given. […]

Data set [3] deals with JcR-2a virus. Briefly: microbe, parasite or virus in culture. The format is cell-based, HCV. The protocol:
Combined effects of CsA on BJ486K and vice versa were analysed by inoculation of Huh7-Lunet/CD81 cells with JcR-2a virus in the presence of given drugs and determination of luciferase activity 72 h later. Mean values of three independent experiments each conducted in triplicates including the standard deviations are given. Data are normalized for values determined in mock treated controls.
Huh7-Lunet/CD81 cells were infected with reporter virus particles essentially as described recently (Koutsoudakis et al., J. Virol. 2006; 80: 5308-5320). Briefly, for inoculation with firefly luciferase reporter virus particles (Luc-Jc1) and Renilla reporter viruses (JcR-2a (Reiss et al., Cell host & microbe 2011; 9: 32-45) and GT1-6, see plasmids below), Huh7-Lunet/CD81 cells were seeded at a density of 6×10 e4 cells per well of a 12-well plate or 6.6×10 e3 cells per well of a 96-well plate 24 h prior to inoculation. If not stated otherwise, the virus particles were pretreated with the inhibitors for 1 h at 37° C. Cells were inoculated for 4 h at 37° C., viral inoculum was replaced by fresh culture fluid and infection was quantified 48 h or 72 h after virus inoculation using luciferase assays. To this end, cells were washed once with PBS and in the case of the Luc-Jc1 infected cells, lysed directly on the plate with 350 μl of cold lysis buffer (0.1% Triton-X100, 25 mM glycylglycine, 15 mM MgSO4, 4 mM EGTA and 1 mM dithiothreitol, pH 7.8) and after addition of the luciferase solution (200 μM luciferin, 25 mM glycylglycine, pH8) measured for 20 s in a luminometer (Lumat LB9507, Berthold, Freiburg, Germany). Cells infected with the renilla reporter virus were lysed in 200 μl lysis buffer (Promega, Mannheim, Germany) and after addition of the luciferase substrate (1 μM of coelenterazin (P. J. K., Kleinblittersdorf, Germany) in PBS) measured for 1 s in a luminometer (Lumat LB9507, Berthold, Freiburg, Germany). The indicated IC50 values were determined by using Sigma Plot software (Systat Inc; San Jose; Calif.). […]

Data set [4] concerns HK6a (GT6a). As to the kind of experiment: Luciferase infection assay, chimeric reporter virus HK6a/6a/R2a in Huh7-Lunet/CD81 cells. It counts as cell-based, HCV. Conditions: Hepatitis C virus, Huh-7, 72 h.

In the case of `COc1ccc(-c2cc(=O)c3c(O)c(O)c(OC)cc3o2)cc1` [BJ486K, 5,6-Dihydroxy-7-methoxy-2-(4-methoxy-phenyl)-chromen-4-one], in data set [1] (mice), the bio-availability result is given as “rather low”. The half-life in data set [1] (mouse, plasma, in mice) is approximately 7 min. The “antiviral activity against G451R mutant compared with wild type” value in data set [2] was “not changed”. Also, the “decrease of the IC50 of BJ486K” value in data set [3] (100 ng/mL of CsA) is “ca. 3 fold”. In addition, the 90% effect concentration (IC90) was 4.37 µM in data set [3] (Hepatitis C virus, Huh-7, 72 h) and 2.39 µM in data set [4]. Moreover, the IC50 in data set [3] (Hepatitis C virus, Huh-7, read-out: IC50 of BJ486K) was approximately 0.4 µM; in data set [4], 0.75 µM.

The record behind these values is patent US20150056166A1, “FLAVONE DERIVATIVES AND THEIR USE” (Twincore GmbH, priority 2012, published 2015).
